Data as given in patent publication US20050164370A1 (priority 2003, published 2005).

Tests used:
Assay type in all cases: cell-based, yeast
cytokinin receptor AHK3 = molecular target: T1, cytokinin receptor AHK3 (Arabidopsis thaliana, UniProt Q9C5U1); assay: Agonist-activity to cytokinin receptor, optical density of TM182-AHK3 liquid culture; set-up: expressed in transfected cells; host or cells: yeast strain TM182 carrying plasmid p415CYC-AHK3 (pHM-1 backbone, CYC1 promoter); conditions: TM182-AHK3, examinee substance 100 μM, DOLU+Glu, 30° C. for 24 hours
T1 sequence (Q9C5U1 1-1036): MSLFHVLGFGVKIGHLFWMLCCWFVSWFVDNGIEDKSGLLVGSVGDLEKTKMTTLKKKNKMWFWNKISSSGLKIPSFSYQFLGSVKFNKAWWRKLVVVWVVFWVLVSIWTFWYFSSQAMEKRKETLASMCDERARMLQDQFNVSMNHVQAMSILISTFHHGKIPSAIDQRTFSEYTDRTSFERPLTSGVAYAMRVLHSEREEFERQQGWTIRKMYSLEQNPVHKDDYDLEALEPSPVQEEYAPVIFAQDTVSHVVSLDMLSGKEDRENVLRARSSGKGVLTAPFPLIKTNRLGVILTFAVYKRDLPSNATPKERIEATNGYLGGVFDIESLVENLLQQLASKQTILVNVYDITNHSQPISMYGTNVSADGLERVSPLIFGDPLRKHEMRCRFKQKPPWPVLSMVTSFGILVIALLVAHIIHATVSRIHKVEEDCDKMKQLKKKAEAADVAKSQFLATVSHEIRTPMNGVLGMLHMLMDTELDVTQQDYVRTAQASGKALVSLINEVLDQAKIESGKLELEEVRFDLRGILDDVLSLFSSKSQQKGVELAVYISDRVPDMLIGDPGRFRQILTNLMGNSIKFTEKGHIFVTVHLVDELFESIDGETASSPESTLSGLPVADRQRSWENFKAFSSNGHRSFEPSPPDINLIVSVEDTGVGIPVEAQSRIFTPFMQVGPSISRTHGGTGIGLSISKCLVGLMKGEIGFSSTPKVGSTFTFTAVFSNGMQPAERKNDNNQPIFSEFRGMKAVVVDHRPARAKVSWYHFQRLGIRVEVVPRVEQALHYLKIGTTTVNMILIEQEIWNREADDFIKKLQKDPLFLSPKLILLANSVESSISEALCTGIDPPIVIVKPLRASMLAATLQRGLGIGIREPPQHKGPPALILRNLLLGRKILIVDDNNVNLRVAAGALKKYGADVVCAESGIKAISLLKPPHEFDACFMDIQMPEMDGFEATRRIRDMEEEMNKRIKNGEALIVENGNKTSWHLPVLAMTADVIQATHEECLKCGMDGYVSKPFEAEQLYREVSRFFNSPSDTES
Method: The transformed cells TM182-AHK2, TM182-AHK2Δ and TM182-AHK3 produced in the reference example 1 were inoculated in 200 ml of DOLU+Gal culture media and pre-cultured at 30° C. for 36 hours. The pre-cultured solutions were diluted with DOLU+Glu media as to become 0.100 as the optical density (OD600) and further the resultants were diluted with DOLU+Glu media at a dilution rate of 1/200 to obtain diluted pre-cultured solutions.
An assay plate was prepared by filling respective wells of a 96-well plate with 20 μl of solutions which were prepared by diluting DMSO solution (10 mM) of each examinee substance with DOLU+Glu medium at a dilution rate of 1/100, said solutions containing each examinee substance to be […]. […]
The diluted pre-cultured solutions were added in 200 μl each into the respective wells of both assay plates and cultured at 30° C. for 24 hours and then the optical density (OD620) of each well was measured by a plate reader. The agonist-activity of the examinee substances to the cytokinin receptor was detected by comparing the optical density measured in the testing sections to which the examinee substances were added with the optical density measured in the blank sections.

[1] = system: transformed cells TM182-CRE1-CYC1IPT4; assay: Liquid culture of transformed cell TM182-CRE1-CYC1IPT4 with examinee substance, absorbance; conditions: Table 3, TM182-CRE1-CYC1-IPT4, 1 μL of 200 ppm DMSO solution per 100 μL, DOHLU+Glu, 30° C. for 24 hours
Method: (§1) The thus obtained culture solutions were diluted with DOHLU+Glu culture medium so that OD600 became 0.200, and then the diluted ones were further diluted with DOHLU+Glu culture medium at a dilution rate of 1/200 to obtain diluted pre-cultured solutions.
(§2) A 96-well assay plate was prepared by filling each well with 1 μL of a DMSO solution of an examinee substance (Abscisic acid or 6-Benzyl aminopurine). In this regard, it is to be noted that the DMSO solution of a examinee substance was prepared so that the concentration thereof became 200 ppm. Simultaneously, an assay plate was prepared by filling each well with 1 μL of DMSO as a blank section.
(§3) Each of the diluted pre-cultured solutions was added in a volume of 100 μL per each well of both of the assay plates, and was cultured at 30° C. for 24 hours. After incubation, the turbidity of each well was measured using a plate reader. The absorbance (OD600) of each of the culture solutions of the transformed cells containing the examinee substance was shown in Table 3. […] Further, the growth speeds of the transformed cells TM182-CRE1-CYC1IPT4 and TM182-CRE1-ADHIPT5 in the culture medium to which 6-Benzyl aminopurine was added were faster than those in the culture medium to which only DMSO was added.

[2] = system: transformed cells TM182-CYC1-CYC1IPT5; assay: Liquid culture of transformed cell TM182-CYC1-CYC1IPT5 with examinee substance, absorbance; conditions: DOHLU+Glu, 30° C. for 24 hours
Method: as §1, §2, §3
as §3, with “4.” for “3.”, “TM182-CRE1-ADHIPT4, TM182-AHK2-CYC1IPT4, TM182-AHK2-CYC1IPT5” for “TM182-CRE1-CYC1IPT4”, “TM182-AHK2-ADHIPT5” for “TM182-CRE1-ADHIPT5”

[3] = Table 3, TM182-CYC1-CYC1-IPT5, 1 μL of 200 ppm DMSO solution per 100 μL
[4] = Table 4, TM182-CYC1-CYC1-IPT5, 1 μL of 200 ppm DMSO solution per 100 μL

| Structure (SMILES) | optical density (OD620) of the culture solution (cytokinin receptor AHK3) | absorbance (OD600) of the culture solution [1] | absorbance (OD600) of the culture solution [2, 3] | absorbance (OD600) of the culture solution [2, 4] |
| --- | --- | --- | --- | --- |
| CC1=CC(=O)CC(C)(C)[C@@]1(O)/C=C/C(C)=C\C(=O)O [Compound A, Abscisic acid] | 0.54 | 0.102 | 0.041 | 0.036 |
| c1ccc(CNc2ncnc3nc[nH]c23)cc1 [Compound B, 6-Benzyl aminopurine] | 0.88 | 0.260 | 0.043 | 0.035 |
